# Data taken from paper PMC6437697 (Journal of Medicinal Chemistry, 2019).
# Tests used:
# Assay in all cases: KINOMEscan
# Type in all cases: binding
# Conditions in all cases: read-out: % control activity remaining
# PRKX = biological target: T1, PRKX (Homo sapiens, UniProt P51817)
# T1 construct: purchased Eurofins DiscoverX KINOMEscan
# T1 sequence (P51817 1-358): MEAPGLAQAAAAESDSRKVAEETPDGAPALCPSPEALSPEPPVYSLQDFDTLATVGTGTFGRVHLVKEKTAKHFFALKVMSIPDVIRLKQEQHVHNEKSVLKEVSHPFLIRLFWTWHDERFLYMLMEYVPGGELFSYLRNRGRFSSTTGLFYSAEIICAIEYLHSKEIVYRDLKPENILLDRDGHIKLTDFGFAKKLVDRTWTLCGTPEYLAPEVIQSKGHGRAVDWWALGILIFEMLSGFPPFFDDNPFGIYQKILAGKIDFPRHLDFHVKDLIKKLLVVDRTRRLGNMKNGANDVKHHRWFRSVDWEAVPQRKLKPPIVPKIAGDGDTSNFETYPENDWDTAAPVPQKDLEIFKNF
# AURKC = biological target: T2, AURKC (Homo sapiens, UniProt Q9UQB9)
# T2 construct: purchased Eurofins DiscoverX KINOMEscan
# T2 sequence (Q9UQB9 1-309): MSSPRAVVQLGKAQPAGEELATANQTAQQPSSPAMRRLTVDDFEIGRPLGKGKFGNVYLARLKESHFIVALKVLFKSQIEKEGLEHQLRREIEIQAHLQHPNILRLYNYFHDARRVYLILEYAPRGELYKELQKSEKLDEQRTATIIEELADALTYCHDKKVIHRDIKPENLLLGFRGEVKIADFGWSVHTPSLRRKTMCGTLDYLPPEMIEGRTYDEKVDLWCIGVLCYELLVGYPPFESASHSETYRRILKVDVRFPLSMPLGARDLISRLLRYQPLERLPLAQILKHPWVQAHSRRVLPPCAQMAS
# PRKD1 = biological target: T3, PRKD1 (Homo sapiens, UniProt Q15139)
# T3 construct: purchased Eurofins DiscoverX KINOMEscan
# T3 sequence (Q15139 1-912): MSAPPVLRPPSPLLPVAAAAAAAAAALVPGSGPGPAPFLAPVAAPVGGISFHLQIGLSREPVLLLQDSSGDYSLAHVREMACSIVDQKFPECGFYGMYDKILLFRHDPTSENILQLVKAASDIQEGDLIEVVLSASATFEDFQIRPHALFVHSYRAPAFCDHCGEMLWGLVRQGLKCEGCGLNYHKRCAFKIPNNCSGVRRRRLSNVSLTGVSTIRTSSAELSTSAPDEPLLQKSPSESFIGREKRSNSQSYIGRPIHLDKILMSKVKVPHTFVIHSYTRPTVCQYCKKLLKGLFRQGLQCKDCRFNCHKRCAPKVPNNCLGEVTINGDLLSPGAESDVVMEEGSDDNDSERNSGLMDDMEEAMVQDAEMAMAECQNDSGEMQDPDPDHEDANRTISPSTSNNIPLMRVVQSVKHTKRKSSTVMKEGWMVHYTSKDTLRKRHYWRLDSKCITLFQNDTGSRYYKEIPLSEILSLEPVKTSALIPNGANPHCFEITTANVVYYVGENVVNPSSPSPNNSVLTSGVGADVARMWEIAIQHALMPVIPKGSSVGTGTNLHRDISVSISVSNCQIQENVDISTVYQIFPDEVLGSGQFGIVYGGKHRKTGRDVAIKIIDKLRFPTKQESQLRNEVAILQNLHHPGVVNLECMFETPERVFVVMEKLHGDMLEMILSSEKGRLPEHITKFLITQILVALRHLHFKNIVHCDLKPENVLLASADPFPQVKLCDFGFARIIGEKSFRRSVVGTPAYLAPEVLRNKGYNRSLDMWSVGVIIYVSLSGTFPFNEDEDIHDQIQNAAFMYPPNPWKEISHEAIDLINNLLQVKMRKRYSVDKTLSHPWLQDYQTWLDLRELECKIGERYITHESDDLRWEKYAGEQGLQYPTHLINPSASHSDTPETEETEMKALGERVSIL
# HIPK3 = biological target: T4, HIPK3 (Homo sapiens, UniProt Q9H422)
# T4 construct: purchased Eurofins DiscoverX KINOMEscan
# T4 sequence (Q9H422 whole entry): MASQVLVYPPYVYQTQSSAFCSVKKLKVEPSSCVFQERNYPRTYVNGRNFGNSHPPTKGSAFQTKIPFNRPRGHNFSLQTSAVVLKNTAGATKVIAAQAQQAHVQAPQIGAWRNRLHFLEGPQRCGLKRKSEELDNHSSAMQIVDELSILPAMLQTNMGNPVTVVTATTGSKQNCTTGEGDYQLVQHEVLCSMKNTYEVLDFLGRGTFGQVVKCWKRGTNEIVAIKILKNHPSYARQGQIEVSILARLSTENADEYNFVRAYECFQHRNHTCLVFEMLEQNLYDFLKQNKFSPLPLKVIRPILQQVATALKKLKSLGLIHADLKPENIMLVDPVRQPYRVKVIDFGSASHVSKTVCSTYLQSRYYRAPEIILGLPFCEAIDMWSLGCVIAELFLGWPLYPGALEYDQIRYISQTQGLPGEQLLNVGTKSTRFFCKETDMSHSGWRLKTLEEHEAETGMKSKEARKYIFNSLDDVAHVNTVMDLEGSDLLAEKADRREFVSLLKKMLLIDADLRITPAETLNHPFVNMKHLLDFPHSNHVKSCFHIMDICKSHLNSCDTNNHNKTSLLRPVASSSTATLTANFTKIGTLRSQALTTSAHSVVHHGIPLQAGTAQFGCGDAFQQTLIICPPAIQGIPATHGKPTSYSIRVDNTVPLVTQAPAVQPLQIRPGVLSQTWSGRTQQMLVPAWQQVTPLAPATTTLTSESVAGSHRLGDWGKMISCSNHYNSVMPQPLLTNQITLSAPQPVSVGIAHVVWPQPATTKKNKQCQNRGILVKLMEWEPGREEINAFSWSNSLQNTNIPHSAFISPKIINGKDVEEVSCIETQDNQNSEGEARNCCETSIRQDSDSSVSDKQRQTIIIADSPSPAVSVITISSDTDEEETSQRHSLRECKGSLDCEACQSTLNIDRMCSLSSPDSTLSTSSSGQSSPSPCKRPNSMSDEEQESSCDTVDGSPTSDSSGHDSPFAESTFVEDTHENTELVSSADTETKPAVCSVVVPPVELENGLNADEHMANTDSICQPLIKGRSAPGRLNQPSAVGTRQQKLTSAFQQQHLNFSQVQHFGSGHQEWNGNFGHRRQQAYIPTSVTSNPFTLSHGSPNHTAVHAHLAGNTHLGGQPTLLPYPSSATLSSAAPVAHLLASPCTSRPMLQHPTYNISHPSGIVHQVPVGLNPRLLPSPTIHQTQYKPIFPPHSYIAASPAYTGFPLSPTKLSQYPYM
# DLK = biological target: T5, DLK (Homo sapiens, UniProt Q12852)
# T5 construct: purchased Eurofins DiscoverX KINOMEscan
# T5 sequence (Q12852 1-859): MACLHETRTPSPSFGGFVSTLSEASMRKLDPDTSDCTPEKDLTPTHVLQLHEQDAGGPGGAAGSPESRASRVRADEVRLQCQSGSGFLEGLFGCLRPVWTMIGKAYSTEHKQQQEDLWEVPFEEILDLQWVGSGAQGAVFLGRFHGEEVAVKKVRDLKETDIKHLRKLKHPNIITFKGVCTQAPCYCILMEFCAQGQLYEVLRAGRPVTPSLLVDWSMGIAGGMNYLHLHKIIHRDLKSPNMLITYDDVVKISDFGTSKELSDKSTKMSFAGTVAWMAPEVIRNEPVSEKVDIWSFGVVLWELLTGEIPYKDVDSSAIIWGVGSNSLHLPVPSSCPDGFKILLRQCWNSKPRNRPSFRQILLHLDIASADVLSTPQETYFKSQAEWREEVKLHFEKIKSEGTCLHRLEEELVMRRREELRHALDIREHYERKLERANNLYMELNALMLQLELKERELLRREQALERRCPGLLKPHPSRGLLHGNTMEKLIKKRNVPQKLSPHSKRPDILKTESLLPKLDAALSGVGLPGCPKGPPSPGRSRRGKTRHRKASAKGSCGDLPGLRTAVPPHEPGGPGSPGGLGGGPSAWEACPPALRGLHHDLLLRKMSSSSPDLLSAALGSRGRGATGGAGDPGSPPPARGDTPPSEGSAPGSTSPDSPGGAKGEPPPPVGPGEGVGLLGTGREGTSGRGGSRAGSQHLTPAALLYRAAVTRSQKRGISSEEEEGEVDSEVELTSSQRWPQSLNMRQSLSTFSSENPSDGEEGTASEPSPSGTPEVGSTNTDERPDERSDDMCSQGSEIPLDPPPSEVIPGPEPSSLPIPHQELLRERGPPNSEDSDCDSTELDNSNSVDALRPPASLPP
Compound,remaining binding at 1 µM (PRKX),remaining binding at 1 µM (AURKC),remaining binding at 1 µM (PRKD1),remaining binding at 1 µM (HIPK3),remaining binding at 1 µM (DLK)
"Clc1cc(NCC2CC2)c2ncc(-c3ccc4[nH]ncc4c3)n2n1 [compound 2, 6-Chloro-N-(cyclopropylmethyl)-3-(1H-indazol-5-yl)imidazo[1,2-b]pyridazin-8-amine]",91%,92%,100%,63%,89%
O=C(CN1CCOCC1)N[C@H]1CC[C@H](Nc2cc(Cl)nn3c(-c4ccc5[nH]ncc5c4)cnc23)CC1 [compound 26],80%,58%,98%,2.4%,83%
"CN1CCC(CNc2cc(Cl)nn3c(-c4cc5nc(Nc6ccccc6)[nH]c5cc4F)cnc23)CC1 [compound 31, 6-Chloro-3-(6-fluoro-2-(phenylamino)-1H-benzo[d]imidazol-5-yl)-N-((1-methylpiperidin-4-yl)methyl)imidazo[1,2-b]pyridazin-8-amine]",100%,92%,99%,89%,100%
